# Tested on: CD44
# Test: Cell surface CD44 expression by FACS
# Format: cell-based
# Conditions: sub-lethal docetaxel (25 nM), MDA-MB-231
# Experimental: DU145 and DU145-TxR were provided by A. Mizokami^63 and cultured in DMEM containing 10% FBS, resistant line included 100 nM paclitaxel in the culture media. During treatments with chemotherapeutics, cells were grown to semi-confluence and treated with indicated concentrations of chemotherapy in serum-containing medium for indicated time points. When small molecule inhibitors were included in treatments, they were added simultaneously with chemotherapy. […] Scrambled siRNA was used as a control. For chemotherapy treatment experiments: Cancer cells were plated at a density of 0.5-1×10^5 cells/ml and allowed to adhere for 24-48 hr. […] Following washes with PBS, adherent cells were trypsinized and re-plated at a density of 1.5-2×10^5 cells/ml and cultured in serum-containing medium. […] A population of drug naïve parent cells were always cultured alongside DTC and fresh media was added at every interval that experimental population (DTC) received fresh media.
# Cells were cultured as indicated, removed from culture dishes with accutase stem-pro dissociation reagent (Invitrogen, Carlsbad Calif.) and fixed with 4% paraformaldehyde in PBS for 30 min at RT, washed twice with PBS and blocked in 10% goat serum (v/v). Whenever necessary, cells were permeabilized with 0.05% saponin in PBS. Cells were incubated with CD44-APC (BD biosciences, San Jose, Calif.) overnight at 4 C and analyzed by FACS (C6 Accuri cyomteters Inc Ann Arbor, Mich.), data analysis using FlowJo software (Tree Star Inc., Ashland Oreg.) and Accuri cFlow plus software to obtain and confirm mean fluorescent intensity (GNU.org).
structure (smiles),measurement,value
CC(=O)O[C@@]12CO[C@@H]1C[C@H](O)[C@@]1(C)C(=O)[C@H](O)C3=C(C)[C@@H](OC(=O)[C@H](O)[C@@H](NC(=O)OC(C)(C)C)c4ccccc4)C[C@@](O)([C@@H](OC(=O)c4ccccc4)[C@H]21)C3(C)C [docetaxel],time to induction of cell surface CD44,≤ 4 h
